Test results as given in article PMC6934184, “Selective DNA-PKcs inhibition extends the therapeutic index of localized radiotherapy and chemotherapy” (The Journal of Clinical Investigation, 2019).

Target: T1, TNIK (Homo sapiens, UniProt Q9UKE5)
T1 construct: purchased Thermo Fisher Scientific (Life Technologies) SelectScreen
Assay: SelectScreen LanthaScreen
Assay type: binding
Settings: read-out: % displacement
Outline: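 NU5455 was profiled across the SelectScreen Broad panel of kinase activity and binding assays. Z'LYTE reactions such as CSF1R ran at apparent Km ATP, while the Adapta CAMK1 assay used ATP listed as 10. Values are given as percent.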

T1 sequence (Q9UKE5 whole entry): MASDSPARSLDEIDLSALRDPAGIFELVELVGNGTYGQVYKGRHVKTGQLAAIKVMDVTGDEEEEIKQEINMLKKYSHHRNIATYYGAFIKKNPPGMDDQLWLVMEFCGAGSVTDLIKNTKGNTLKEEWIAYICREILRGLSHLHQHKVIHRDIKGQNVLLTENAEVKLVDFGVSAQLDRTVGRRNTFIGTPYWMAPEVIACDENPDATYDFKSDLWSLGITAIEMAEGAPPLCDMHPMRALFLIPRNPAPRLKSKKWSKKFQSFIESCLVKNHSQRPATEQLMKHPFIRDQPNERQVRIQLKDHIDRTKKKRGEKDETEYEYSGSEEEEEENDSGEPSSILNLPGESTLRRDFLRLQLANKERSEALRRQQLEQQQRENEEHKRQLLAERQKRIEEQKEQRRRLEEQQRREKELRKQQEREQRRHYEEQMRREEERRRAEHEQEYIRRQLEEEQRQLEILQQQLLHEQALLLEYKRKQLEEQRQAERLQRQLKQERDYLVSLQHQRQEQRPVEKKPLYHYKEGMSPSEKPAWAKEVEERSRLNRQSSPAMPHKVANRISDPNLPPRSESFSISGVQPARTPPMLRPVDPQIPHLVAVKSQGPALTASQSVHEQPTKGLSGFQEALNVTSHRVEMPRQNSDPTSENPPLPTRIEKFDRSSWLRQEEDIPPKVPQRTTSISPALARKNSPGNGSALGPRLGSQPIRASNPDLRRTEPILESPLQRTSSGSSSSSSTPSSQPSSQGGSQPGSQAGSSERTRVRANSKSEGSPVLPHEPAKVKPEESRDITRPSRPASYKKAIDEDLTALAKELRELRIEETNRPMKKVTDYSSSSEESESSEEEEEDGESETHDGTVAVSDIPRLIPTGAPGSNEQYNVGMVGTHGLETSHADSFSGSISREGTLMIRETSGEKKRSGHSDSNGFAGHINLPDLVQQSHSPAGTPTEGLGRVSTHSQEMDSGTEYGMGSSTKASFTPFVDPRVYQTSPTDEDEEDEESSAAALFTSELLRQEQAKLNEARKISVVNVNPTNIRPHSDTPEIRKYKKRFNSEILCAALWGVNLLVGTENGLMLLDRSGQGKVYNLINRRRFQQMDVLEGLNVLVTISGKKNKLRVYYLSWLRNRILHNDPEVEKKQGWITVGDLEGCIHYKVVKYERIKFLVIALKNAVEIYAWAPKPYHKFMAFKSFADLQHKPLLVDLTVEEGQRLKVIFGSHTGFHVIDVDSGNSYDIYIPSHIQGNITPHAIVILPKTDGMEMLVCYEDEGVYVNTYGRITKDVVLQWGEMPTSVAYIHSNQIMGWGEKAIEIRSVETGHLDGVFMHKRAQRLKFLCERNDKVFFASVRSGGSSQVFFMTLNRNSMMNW

CN(C(=O)CN1CCOCC1)c1ccc2sc3c(-c4cccc5c(=O)cc(N6CC7CCC(C6)O7)oc45)cccc3c2c1 [NU5455]
inhibition at 1 µM: 7.3%
